The source of these data is PubChem BioAssay AID1745844 (Carcinogenic Potency Database (CPDB), 2022).

The subject of this series is rodent lifetime carcinogenesis bioassay, tumor incidence TD50. The experiment in a line: chronic cancer bioassays in animals – CPDB, compiled studies (AID 1745844).

Each structure is given as a SMILES string. Activity calls are given as the source filed them. How the calls were made is not given here.

One may read the TD50 as the 50% point of the dose-response relation for the toxic effect studied.

With `CC=O`, the TD50 was 1140 mg/kg/day (hamster, strain Syrian Golden, females, inhaled, site: larynx, lesion: adenosquamous carcinoma, dosed 52 weeks, study length 81 weeks); 728 mg/kg/day (hamster, strain Syrian Golden, females, inhaled, site: larynx, lesion: several types, types named in the paper, dosed 52 weeks, study length 81 weeks); 2360 mg/kg/day (hamster, strain Syrian Golden, females, inhaled, site: larynx, lesion: squamous-cell carcinoma, dosed 52 weeks, study length 81 weeks); 641 mg/kg/day (hamster, strain Syrian Golden, males, inhaled, site: larynx, lesion: carcinoma, in situ, dosed 52 weeks, study length 81 weeks); 461 mg/kg/day (hamster, strain Syrian Golden, males, inhaled, site: larynx, lesion: several types, types named in the paper, dosed 52 weeks, study length 81 weeks); 2070 mg/kg/day (hamster, strain Syrian Golden, males, inhaled, site: larynx, lesion: squamous-cell carcinoma, dosed 52 weeks, study length 81 weeks). In addition, the TD50 is 2070 mg/kg/day (hamster, strain Syrian Golden, males, inhaled, site: nose, lesion: anaplastic carcinoma, dosed 52 weeks, study length 81 weeks); 461 mg/kg/day (hamster, strain Syrian Golden, males, inhaled, site: respiratory system, lesion: several types, types named in the paper, dosed 52 weeks, study length 81 weeks); 201 mg/kg/day (rat, strain Wistar-random, females, inhaled, site: nasal mucosa, lesion: adenocarcinoma, dosed 50 weeks, study length 105 weeks); 148 mg/kg/day (rat, strain Wistar-random, females, inhaled, site: nasal mucosa, lesion: several types, types named in the paper, dosed 50 weeks, study length 105 weeks); 574 mg/kg/day (rat, strain Wistar-random, females, inhaled, site: nasal mucosa, lesion: squamous-cell carcinoma, dosed 50 weeks, study length 105 weeks); 190 mg/kg/day (rat, strain Wistar-random, males, inhaled, site: nasal mucosa, lesion: adenocarcinoma, dosed 50 weeks, study length 105 weeks). Moreover, the TD50 runs as follows: (rat, strain Wistar-random, males, inhaled, site: nasal mucosa, lesion: several types, types named in the paper, dosed 50 weeks, study length 105 weeks) 88.5 mg/kg/day; (rat, strain Wistar-random, males, inhaled, site: nasal mucosa, lesion: squamous-cell carcinoma, dosed 50 weeks, study length 105 weeks) 200 mg/kg/day; (rat, strain Wistar, females, inhaled, site: nose, lesion: adenocarcinoma, dosed 111 weeks, study length 121 weeks) 370 mg/kg/day; (rat, strain Wistar, females, inhaled, site: nose, lesion: carcinoma, in situ, dosed 111 weeks, study length 121 weeks) 3000 mg/kg/day; (rat, strain Wistar, females, inhaled, site: nose, lesion: squamous-cell carcinoma, dosed 111 weeks, study length 121 weeks) 1030 mg/kg/day; (rat, strain Wistar, males, inhaled, site: nose, lesion: adenocarcinoma, dosed 111 weeks, study length 121 weeks) 185 mg/kg/day. Also, under “rat, strain Wistar, males, inhaled, site: nose, lesion: squamous-cell carcinoma, dosed 111 weeks, study length 121 weeks”, the TD50 was 627 mg/kg/day.
Turning to `c1ccc2c(c1)ccc1cc3c(ccc4ccccc43)cc12`, the TD50 (mouse, strain DBA/2, males, in drinking water, site: lung, lesion: alveolar-cell carcinoma, dosed 60 weeks, study length 60 weeks) was 5.88 mg/kg/day.
For the molecule `CNC(=S)N(C)C`, the TD50 is, setting by setting: (mouse, strain B6C3F1, females, in feed, site: any site (literature study), lesion: several types, types named in the paper, dosed 77 weeks, study length 91 weeks) 1970 mg/kg/day (inactive); (mouse, strain B6C3F1, females, in feed, site: lung, lesion: alveolar/bronchiolar adenoma + alveolar/bronchiolar carcinoma, dosed 77 weeks, study length 91 weeks) 1260 mg/kg/day; (mouse, strain B6C3F1, males, in feed, site: lung, lesion: alveolar/bronchiolar adenoma + alveolar/bronchiolar carcinoma, dosed 77 weeks, study length 91 weeks) 478 mg/kg/day; (rat, strain Fischer 344, females, in feed, site: any site (literature study), lesion: several types, types named in the paper, dosed 77 weeks, study length 106 weeks) 17.4 mg/kg/day; (rat, strain Fischer 344, females, in feed, site: thyroid gland, lesion: follicular-cell adenoma + follicular-cell carcinoma, dosed 77 weeks, study length 106 weeks) 25.8 mg/kg/day; (rat, strain Fischer 344, females, in feed, site: thyroid gland, lesion: follicular-cell carcinoma, dosed 77 weeks, study length 106 weeks) 45 mg/kg/day. The carcinogen call is, setting by setting: (mouse, strain B6C3F1, males, in feed, site: any site (literature study), lesion: several types, types named in the paper, dosed 77 weeks, study length 91 weeks) “negative (inactive)”; (rat, strain Fischer 344, males, in feed, site: any site (literature study), lesion: several types, types named in the paper, dosed 77 weeks, study length 106 weeks) “negative (inactive)”.
For `CC(=O)NNC(C)=O`, the carcinogen call reads like this: (mouse, strain Swiss, females, by gavage, site: lung, lesion: several types, types named in the paper, dosed 34 weeks, study length 95 weeks) “negative (inactive)”; (mouse, strain Swiss, females, by gavage, site: lung, lesion: several types, types named in the paper, dosed 95 weeks, study length 95 weeks) “negative (inactive)”. Besides, the TD50 by setting is: (mouse, strain Swiss, males, by gavage, site: lung, lesion: several types, types named in the paper, dosed 34 weeks, study length 95 weeks) 144 mg/kg/day (inactive); (mouse, strain Swiss, males, by gavage, site: lung, lesion: several types, types named in the paper, dosed 95 weeks, study length 95 weeks) 411 mg/kg/day (inactive).
Take `CCCCC(CC)COC(=O)CCCCC(=O)OCC(CC)CCCC` (stereo not drawn): the TD50 is, setting by setting: (mouse, strain B6C3F1, females, in feed, site: liver, lesion: hepatocellular adenoma + hepatocellular carcinoma + neoplastic nodule, dosed 103 weeks, study length 105 weeks) 3840 mg/kg/day; (mouse, strain B6C3F1, females, in feed, site: liver, lesion: hepatocellular adenoma + hepatocellular carcinoma, dosed 103 weeks, study length 105 weeks) 3840 mg/kg/day; (mouse, strain B6C3F1, females, in feed, site: liver, lesion: hepatocellular carcinoma, dosed 103 weeks, study length 105 weeks) 3050 mg/kg/day; (mouse, strain B6C3F1, males, in feed, site: liver, lesion: hepatocellular adenoma + hepatocellular carcinoma + neoplastic nodule, dosed 103 weeks, study length 104 weeks) 5330 mg/kg/day; (mouse, strain B6C3F1, males, in feed, site: liver, lesion: hepatocellular adenoma + hepatocellular carcinoma, dosed 103 weeks, study length 104 weeks) 5330 mg/kg/day; (mouse, strain B6C3F1, males, in feed, site: liver, lesion: hepatocellular adenoma, dosed 103 weeks, study length 104 weeks) 9040 mg/kg/day. For the same molecule, the TD50 is 11700 mg/kg/day (mouse, strain B6C3F1, males, in feed, site: lung, lesion: alveolar/bronchiolar adenoma + alveolar/bronchiolar carcinoma, dosed 103 weeks, study length 104 weeks) and 14500 mg/kg/day (rat, strain Fischer 344, females, in feed, site: liver, lesion: hepatocellular adenoma + hepatocellular carcinoma + neoplastic nodule, dosed 103 weeks, study length 105 weeks). The carcinogen call runs as follows: (rat, strain Fischer 344, females, in feed, site: any site (literature study), lesion: several types, types named in the paper, dosed 103 weeks, study length 105 weeks) “negative (inactive)”; (rat, strain Fischer 344, males, in feed, site: any site (literature study), lesion: several types, types named in the paper, dosed 103 weeks, study length 104 weeks) “negative (inactive)”.
With `CCN(Cc1cccc(S(=O)(=O)O)c1)c1ccc(C(=C2C=CC(=[N+](CC)Cc3cccc(S(=O)(=O)[O-])c3)C=C2)c2ccccc2)cc1`, the TD50 reads like this: (mouse, strain C3HeB/FeJ, females, in feed, site: any site (literature study), lesion: malignant tumor, dosed 104 weeks, study length 104 weeks) 18400 mg/kg/day (inactive); (mouse, strain C3HeB/FeJ, females, in feed, site: liver, lesion: several types, types named in the paper, dosed 104 weeks, study length 104 weeks) 146000 mg/kg/day (inactive); (mouse, strain C3HeB/FeJ, females, in feed, site: lung, lesion: adenoma, dosed 104 weeks, study length 104 weeks) 146000 mg/kg/day (inactive); (mouse, strain C3HeB/FeJ, males, in feed, site: any site (literature study), lesion: several types, types named in the paper, dosed 104 weeks, study length 104 weeks) 20800 mg/kg/day (inactive); (mouse, strain C3HeB/FeJ, males, in feed, site: liver, lesion: several types, types named in the paper, dosed 104 weeks, study length 104 weeks) 26100 mg/kg/day (inactive); (mouse, strain C3HeB/FeJ, males, in feed, site: lung, lesion: several types, types named in the paper, dosed 104 weeks, study length 104 weeks) 59200 mg/kg/day. The TD50 is 97500 mg/kg/day (rat, strain Osborne-Mendel, females, in feed, site: any site (literature study), lesion: several types, types named in the paper, dosed 104 weeks, study length 104 weeks); 13800 mg/kg/day (rat, strain Osborne-Mendel, females, in feed, site: liver, lesion: several types, types named in the paper, dosed 104 weeks, study length 104 weeks); 11400 mg/kg/day (rat, strain Osborne-Mendel, males, in feed, site: any site (literature study), lesion: several types, types named in the paper, dosed 104 weeks, study length 104 weeks); 5980 mg/kg/day (rat, strain Osborne-Mendel, males, in feed, site: liver, lesion: several types, types named in the paper, dosed 104 weeks, study length 104 weeks); 8370 mg/kg/day (rat, strain Wistar, both sexes, in feed, site: abdomen, lesion: malignant lymphoma, dosed 93 weeks, study length 93 weeks); 8370 mg/kg/day (rat, strain Wistar, both sexes, in feed, site: mediastinum, lesion: malignant lymphoma, dosed 93 weeks, study length 93 weeks). Under “rat, strain Wistar, both sexes, in feed, site: several sites, sites named in the paper, lesion: malignant lymphoma, dosed 93 weeks, study length 93 weeks”, the TD50 was 3920 mg/kg/day. Also, the carcinogen call is, setting by setting: (mouse, strain C3HeB/FeJ, females, in feed, site: any site (literature study), lesion: several types, types named in the paper, dosed 104 weeks, study length 104 weeks) “negative (inactive)”; (mouse, strain C3HeB/FeJ, males, in feed, site: any site (literature study), lesion: malignant tumor, dosed 104 weeks, study length 104 weeks) “negative (inactive)”; (rat, strain Osborne-Mendel, females, in feed, site: any site (literature study), lesion: malignant tumor, dosed 104 weeks, study length 104 weeks) “negative (inactive)”; (rat, strain Osborne-Mendel, males, in feed, site: any site (literature study), lesion: malignant tumor, dosed 104 weeks, study length 104 weeks) “negative (inactive)”.
For the setting “rat, strain Slc-Wistar, males, in feed, site: adrenal medulla, lesion: pheochromocytoma, dosed 57 weeks, study length 57 weeks”, `C=C1CC[C@H](O)C/C1=C/C=C1\CCC[C@]2(C)[C@@H]([C@H](C)CC[C@@H](O)C(C)(C)O)CC[C@@H]12` yielded a TD50 of 0.803 mg/kg/day. For the same molecule, the carcinogen call (rat, strain Slc-Wistar, males, in feed, site: stomach, glandular, lesion: adenocarcinoma, dosed 57 weeks, study length 57 weeks) was “negative (inactive)”.
Take `CCC(CC)[N+](=O)[O-]`: the TD50 is 3.05 mg/kg/day (rat, strain Fischer 344, males, by gavage, site: liver, lesion: hepatocellular carcinoma, dosed 50 weeks, study length 83 weeks) and 2.37 mg/kg/day (rat, strain Fischer 344, males, by gavage, site: liver, lesion: several types, types named in the paper, dosed 50 weeks, study length 83 weeks).
